# Like-named read-outs stand apart in the source and are kept apart here.
# What was measured:
# HIV-1 WT virus (NL4-3) = assay: microbe, parasite or virus in culture; assay type: cell-based; details: for EC50: Human immunodeficiency virus 1, NL43, CEM-SS, WT, read-out: EC50
# Method: Evaluation of these compounds for the inhibition of HIV-1 was determined as the fifty percent cell culture inhibitory concentration (CIC50) in CEMSS cell culture with WT virus (NL4-3).
# (§1) In this Example, the antiviral and cellular toxicity of NNRTIs was investigated, using the cytopathic cell killing assay described by Yang (Yang et al., “Characteristics of a Group of Non-nucleoside Reverse Transcriptase Inhibitors with Structural Diversity and Potent Anti-Human Immunodeficiency Virus Activity,” Leukemia 9:S75-S85 [1995]). Briefly, in this method cells (e.g., the CEM-SS cell line, available from the NIAID AIDS Research and Reference Program [ARRRP]) were seeded at a density of 5×10^3 cells/well, into the wells of a 96-well microtiter plate. The cells were then infected with HIV virus (either mutant or WT), at a multiplicity of infection (MOI) previously determined to provide complete cell killing by 6 days of culture post-infection (e.g., MOI of 0.01-0.05). Each of the HIV isolates was pre-titered to induce equivalent levels of infection based on cell killing or virus production, prior to their use in these assays. A range of test compound concentrations was added to the wells in triplicate (e.g., serial half-log dilutions) to evaluate inhibition of HIV infection. Controls for each assay included drug controls (drug colorimetric control wells), drug cytotoxicity control wells (cells with drug), virus control wells (cells with virus), and cell viability controls (cells only). Positive control drugs (e.g. AZT and ddC) were also run in parallel.
# (§2) After six days of incubation at 37° C., cell viability was determined spectrophotometrically at 450 nm for each well, using the metabolic reduction of XTT to a soluble colored formazan. (See, Gartner and Popovic, “Virus Isolation and Production, in Aldovini and Walker (eds.), Techniques in HIV Research, Stockton Press, NY, pp. […] [1991]; and Nara and Fischinger, “Quantitative Infectivity Assay for HIV-1 and HIV-2, ” Nature 332:469-470 [1988]).
# (§3) The in vitro therapeutic index (TI50) was defined as the fold-difference between the EC50 and IC50. The results for the various compounds are included in FIGS. 8 and 19.
# HIV-1 isolate V106A = assay: Cytopathic cell killing assay, MT-4 cells, isolate V106A; assay type: cell-based; details: Human immunodeficiency virus 1, MT4, read-out: EC50, isolate V106A, Table 8; MT-4 cells
# Description: (§4) The various HIV isolates tested in the Figures are those corresponding to wild-type virus (NL4-3) and the other strains listed by their RT mutations. The three 4×AZT isolates included in the Figures represent AZT drug-resistant variants. For example, the 4×AZT/L100I isolate has five mutations: four mutations confer increased resistance to AZT, and the other mutation is located within the NNRTI binding pocket. TZB and nevir. (nevirapine) are two well-known NNRTIs, included in this experiment for comparison purposes.
# In this Example, the antiviral and cellular toxicity of NNRTIs was investigated, using the cytopathic cell killing assay described by Yang (Yang et al., “Characteristics of a Group of Non-nucleoside Reverse Transcriptase Inhibitors with Structural Diversity and Potent Anti-Human Immunodeficiency Virus Activity,” Leukemia 9:S75-S85 [1995]). Briefly, in this method cells (e.g., the CEM-SS cell line, available from the NIAID AIDS Research and Reference Program [ARRRP]) were seeded at a density of 5×10^3 cells/well, into the wells of a 96-well microtiter plate. The cells were then infected with HIV virus (either mutant or WT), at a multiplicity of infection (MOI) previously determined to provide complete cell killing by 6 days of culture post-infection (e.g., MOI of 0.01-0.05). Each of the HIV isolates was pre-titered to induce equivalent levels of infection based on cell killing or virus production, prior to their use in these assays. A range of test compound concentrations was added to the wells in triplicate (e.g., serial half-log dilutions) to evaluate inhibition of HIV infection. […]
# After six days of incubation at 37° C., cell viability was determined spectrophotometrically at 450 nm for each well, using the metabolic reduction of XTT to a soluble colored formazan. (See, Gartner and Popovic, “Virus Isolation and Production, in Aldovini and Walker (eds.), Techniques in HIV Research, Stockton Press, NY, pp. […] [1991]; and Nara and Fischinger, “Quantitative Infectivity Assay for HIV-1 and HIV-2, ” Nature 332:469-470 [1988]). […]
# HIV-1 isolate L74V = assay: Cytopathic cell killing assay, MT-4 cells, isolate L74V; assay type: cell-based; details: MT-4 cells
# Description: as §4, §1, §2, §3
# [1] = tested on: WT and HIV-1 variants containing amino acid substitutions in RT; assay type: cell-based; details: cytopathic cell killing assay, NNRTI-resistant HIV isolates
# Description: In these Tables, antiviral data are reported as the quantity of drug in μM required to reduce cell killing or virus production by 50% (EC50). The various HIV isolates tested in the Figures are those corresponding to wild-type virus (NL4-3) and the other strains listed by their RT mutations. The three 4×AZT isolates included in the Figures represent AZT drug-resistant variants.
# (§5) Briefly, in this method cells (e.g., the CEM-SS cell line, available from the NIAID AIDS Research and Reference Program [ARRRP]) were seeded at a density of 5×10^3 cells/well, into the wells of a 96-well microtiter plate. The cells were then infected with HIV virus (either mutant or WT), at a multiplicity of infection (MOI) previously determined to provide complete cell killing by 6 days of culture post-infection (e.g., MOI of 0.01-0.05). Each of the HIV isolates was pre-titered to induce equivalent levels of infection based on cell killing or virus production, prior to their use in these assays. A range of test compound concentrations was added to the wells in triplicate (e.g., serial half-log dilutions) to evaluate inhibition of HIV infection. Controls for each assay included drug controls (drug colorimetric control wells), drug cytotoxicity control wells (cells with drug), virus control wells (cells with virus), and cell viability controls (cells only). Positive control drugs (e.g. AZT and ddC) were also run in parallel.
# as §2
# Antiviral and toxicity data were reported as the quantity of drug required to inhibit 50% of virus-induced cell killing or virus production (EC50), and the quantity of drug required to […] (IC50). The in vitro therapeutic index (TI50) was defined as the fold-difference between the EC50 and IC50.
# HIV-1 isolate V179D = assay: Cytopathic cell killing assay, MT-4 cells, isolate V179D; assay type: cell-based; details: Human immunodeficiency virus 1, MT4, read-out: EC50, isolate V179D, Table 8; MT-4 cells
# Description: as §4, §1, §2, §3
# HIV-1 WT RT = HIV-1 WT RT (Human immunodeficiency virus type 1 group M subtype B, UniProt P03366); assay: biochemical; assay type: biochemical
# HIV-1 isolate L100I = assay: Cytopathic cell killing assay, MT-4 cells, isolate L100I; assay type: cell-based
# Description: as §4, §1, §2, §3
# HIV-1 isolate K103N = assay: Cytopathic cell killing assay, MT-4 cells, isolate K103N; assay type: cell-based
# Description: as §4, §1, §2, §3
# HIV-1 isolate V108I = assay: Cytopathic cell killing assay, MT-4 cells, isolate V108I; assay type: cell-based; details: Human immunodeficiency virus 1, MT4, read-out: EC50, isolate V1081, Table 8; MT-4 cells
# Description: as §4, §1, §2, §3
# HIV-1 isolate Y188C = assay: Cytopathic cell killing assay, MT-4 cells, isolate Y188C; assay type: cell-based; details: MT-4 cells
# Description: as §4, §1, §2, §3
# HIV-1 isolate K101E = assay: Cytopathic cell killing assay, MT-4 cells, isolate K101E; assay type: cell-based; details: Human immunodeficiency virus 1, MT4, read-out: EC50, isolate K101E, Table 8; MT-4 cells
# Description: as §4, §1, §2, §3
# HIV-1 NL4-3 (WT) = assay: Cytopathic cell killing assay, MT-4 cells, isolate NL4-3 (WT); assay type: cell-based
# Description: as §4, §1, §2, §3
# HIV-1 isolate A98G = assay: Cytopathic cell killing assay, MT-4 cells, isolate A98G; assay type: cell-based; details: Human immunodeficiency virus 1, MT4, read-out: EC50, isolate A98G, Table 8; MT-4 cells
# Description: as §4, §1, §2, §3
# HIV-1 isolate Y181C = assay: Cytopathic cell killing assay, MT-4 cells, isolate Y181C; assay type: cell-based
# Description: as §4, §1, §2, §3
# [2] = tested on: HIV-1 isolate 4xAZT/L100I; assay: Cytopathic cell killing assay, MT-4 cells, isolate 4xAZT/L100I; assay type: cell-based; details: read-out: EC50, isolate 4XAZT/L1001; Table 9; MT-4 cells
# Method: The various HIV isolates tested in the Figures are those corresponding to wild-type virus (NL4-3) and the other strains listed by their RT mutations. The three 4×AZT isolates included in the Figures represent AZT drug-resistant variants.
# as §5, §2
# The in vitro therapeutic index (TI50) was defined as the fold-difference between the EC50 and IC50.
# [3] = Table 7, drug concentration required to reduce cell killing or virus production by 50%
structure (smiles),measurement,setting,value
"CC(=O)Nc1cccc2c1nc(-c1c(F)cccc1F)n2Cc1c(F)cccc1F [Compound 3600, 1-(2,6-difluorobenzyl)-2-(2,6-difluorophenyl)-4-acetamidobenzimidazole]",EC50,HIV-1 WT virus (NL4-3); [3],1.48 µM
same,EC50,HIV-1 isolate V106A,> 20 µM
same,EC50,"HIV-1 isolate L74V; Human immunodeficiency virus 1, MT4, read-out: EC50, isolate L74V, Table 8",1.2 µM
same,"cross-resistance profile, result in words",[1],inhibit HIV-1 better than TZB
same,EC50,HIV-1 isolate V179D,1.7 µM
same,melting point,,194 to 195 °C
same,IC50,HIV-1 WT RT,54.7 µM
same,inhibition at 1 µM,"HIV-1 WT RT; Table 7, 1 μM drug, WT HIV-1 RT, read-out: % inhibn (1 μM)",24%
same,EC50,"HIV-1 isolate L100I; Human immunodeficiency virus 1, MT4, read-out: EC50, isolate L100I, Table 10, values in μM",3.25 µM
same,EC50,"HIV-1 isolate L100I; Human immunodeficiency virus 1, MT4, read-out: EC50, isolate L1001, Table 8, MT-4 cells",2.1 µM
same,EC50,"HIV-1 isolate K103N; Human immunodeficiency virus 1, MT4, read-out: EC50, isolate K103N, Table 8, MT-4 cells",> 20 µM
same,EC50,"HIV-1 isolate K103N; Human immunodeficiency virus 1, MT4, read-out: EC50, isolate K103N, Table 10, values in μM",> 100 µM
same,EC50,HIV-1 isolate V108I,5.3 µM
same,EC50,"HIV-1 isolate Y188C; Human immunodeficiency virus 1, MT4, read-out: EC50, isolate Y188C, Table 8",> 10 µM
same,EC50,HIV-1 isolate K101E,> 20 µM
same,EC50,"HIV-1 NL4-3 (WT); Human immunodeficiency virus 1, NL43, MT4, Table 8, MT-4 cells, read-out: EC50, isolate NL4-3",1.6 µM
same,EC50,"HIV-1 NL4-3 (WT); Human immunodeficiency virus 1, NL43, MT4, Table 10, values in μM, read-out: EC50, isolate NL4-3 (WT)",1.97 µM
same,EC50,HIV-1 isolate A98G,4.3 µM
same,EC50,"HIV-1 isolate Y181C; Human immunodeficiency virus 1, MT4, read-out: EC50, isolate Y181C, Table 8, MT-4 cells",> 10 µM
same,EC50,"HIV-1 isolate Y181C; Human immunodeficiency virus 1, MT4, read-out: EC50, isolate Y181C, Table 10, values in μM",> 100 µM
"CC(=O)N(C)c1cccc2c1nc(-c1c(F)cccc1F)n2Cc1c(F)cccc1F [Compound 5011, 1-(2,6-difluorobenzyl)-2-(2,6-difluorophenyl)-4-(N-methylacetamido)benzimidazole]",EC50,HIV-1 WT virus (NL4-3); [3],0.02 µM
same,EC50,"HIV-1 WT virus (NL4-3); text b130, cytopathic cell killing assay",0.02 µM
same,fold more potent than the 4-methyl or 4-amino compounds (EC50),HIV-1 WT virus (NL4-3); cytopathic cell killing assay,20 fold
same,"cross-resistance profile, result in words",[1]; listed as N-methyl acetamido,inhibit HIV-1 better than TZB
same,"cross-resistance profile, result in words",[1]; listed as N-methylacetamido,equal or better against the various variants than nevirapine
same,melting point,,155 to 156 °C
same,IC50,HIV-1 WT RT,0.32 µM
same,% inhibn (1 μM),"HIV-1 WT RT; Table 7, 1 μM drug, WT HIV-1 RT",77%
same,EC50,HIV-1 isolate A98G,0.1 µM
"Fc1cccc(F)c1C1SCc2nc3ccccc3n21 (stereo not shown) [TZB, 1-(2,6-difluorophenyl)-1H,3H-thiazolo[3,4-a]benzimidazole, reference compound]",EC50,"HIV-1 isolate L74V; Human immunodeficiency virus 1, MT4, read-out: EC50, isolate L74V, Table 9",0.8 µM
same,EC50,[2],1.1 µM
same,"activity against K103N, result in words",HIV-1 isolate K103N; cytopathic cell killing assay,ineffective
same,EC50,"HIV-1 isolate Y188C; Human immunodeficiency virus 1, MT4, read-out: EC50, isolate Y188C, Table 9",> 20 µM
same,EC50,"HIV-1 NL4-3 (WT); Human immunodeficiency virus 1, NL43, MT4, read-out: EC50, isolate NL4-3, Table 9, MT-4 cells",1 µM

# Source: patent publication US6894068B2, “Substituted benzimidazoles as non-nucleoside inhibitors of reverse transcriptase” (The United States of America as represented by the …, priority 1997, dated 2005)
